Measured values as given in patent publication US20260248791A1, “METHODS FOR TREATING DERMATOMYOSITIS WITH BREPOCITINIB” (priority 2023, published 2026).

How the values were obtained:
[1] = Solubility across physiological pH range; type: physicochemical
transgenic (Tg) mice = assay: 6-month carcinogenicity study in Tg mice; type: in vivo; conditions: 6-month Tg mouse study
Text: (§1) Immunotoxicity and phototoxicity studies have also been conducted. Carcinogenicity studies in Tg mice (6 month) and rats (2 year) have been completed. […] Brepocitinib-related findings consistent with the mechanism of action (lower thymus weight and cellularity, infection) or not relevant to humans (exacerbation of chronic progressive nephropathy in the kidney) were also observed. Fertility studies in rats have been completed.

[2] = target: P-glycoprotein (P-gp; MDR1; ABCB1) (Homo sapiens, UniProt P08183); assay: P-glycoprotein substrate status
Sequence of P-glycoprotein (P-gp; MDR1; ABCB1) (P08183 whole entry): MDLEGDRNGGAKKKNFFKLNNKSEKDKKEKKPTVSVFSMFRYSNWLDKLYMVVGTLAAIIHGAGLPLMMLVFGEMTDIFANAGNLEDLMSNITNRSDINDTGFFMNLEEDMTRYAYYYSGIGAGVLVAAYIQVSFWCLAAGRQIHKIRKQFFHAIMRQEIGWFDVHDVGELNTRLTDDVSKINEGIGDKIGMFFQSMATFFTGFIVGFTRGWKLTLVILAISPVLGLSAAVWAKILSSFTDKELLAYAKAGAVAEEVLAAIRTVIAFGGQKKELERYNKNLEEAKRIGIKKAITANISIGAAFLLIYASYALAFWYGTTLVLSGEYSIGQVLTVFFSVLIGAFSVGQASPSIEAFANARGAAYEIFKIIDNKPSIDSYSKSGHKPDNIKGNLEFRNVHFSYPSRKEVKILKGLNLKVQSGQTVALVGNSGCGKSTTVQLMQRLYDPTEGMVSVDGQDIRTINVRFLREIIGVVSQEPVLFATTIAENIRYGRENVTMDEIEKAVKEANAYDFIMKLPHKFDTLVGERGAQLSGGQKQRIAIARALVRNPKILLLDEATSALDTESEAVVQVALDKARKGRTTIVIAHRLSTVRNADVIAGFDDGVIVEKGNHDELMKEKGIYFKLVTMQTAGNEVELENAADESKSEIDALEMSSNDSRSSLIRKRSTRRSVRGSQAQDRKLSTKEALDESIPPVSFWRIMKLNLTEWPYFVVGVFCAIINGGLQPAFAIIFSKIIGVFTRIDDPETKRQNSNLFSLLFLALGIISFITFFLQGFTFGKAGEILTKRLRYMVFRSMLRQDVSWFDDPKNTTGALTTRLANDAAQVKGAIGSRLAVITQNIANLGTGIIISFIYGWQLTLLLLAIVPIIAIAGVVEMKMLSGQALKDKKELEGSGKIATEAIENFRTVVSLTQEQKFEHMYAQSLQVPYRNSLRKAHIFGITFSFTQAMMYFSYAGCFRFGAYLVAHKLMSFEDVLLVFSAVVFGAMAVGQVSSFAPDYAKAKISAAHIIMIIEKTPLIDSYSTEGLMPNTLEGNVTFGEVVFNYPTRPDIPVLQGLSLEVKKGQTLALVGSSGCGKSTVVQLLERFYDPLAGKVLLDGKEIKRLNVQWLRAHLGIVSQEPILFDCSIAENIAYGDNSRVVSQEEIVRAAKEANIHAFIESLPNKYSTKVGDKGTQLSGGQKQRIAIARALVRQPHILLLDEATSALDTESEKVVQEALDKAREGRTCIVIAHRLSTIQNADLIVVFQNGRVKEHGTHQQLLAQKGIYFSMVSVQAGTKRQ

[3] = Dissolution from immediate-release tablets; type: physicochemical; conditions: in 30 minutes; 30 mg tablet, pH 6.8 phosphate buffer, USP Apparatus II, 75 rpm
Description: Dissolution: […] An illustrative dissolution profile for a prototype 30 mg tablet in pH 6.8 phosphate buffer using USP Apparatus II, 75 rpm is shown in FIG. 6. […] The final to-be-marketed product will be tested in all three-pH media for confirmation of rapid dissolution. The to-be-marketed product will be developed at a commercial manufacturing site that is to be decided and will be different from that used to manufacture the current clinical trial material.

cynomolgus monkeys = assay: Chronic oral toxicology study in monkeys; conditions: end of study exposure
[4] = target: organic cation transporter (OCT) 1 (Homo sapiens, UniProt O15245); assay: In vitro transporter inhibition, OCT1
Sequence of organic cation transporter (OCT) 1 (O15245 whole entry): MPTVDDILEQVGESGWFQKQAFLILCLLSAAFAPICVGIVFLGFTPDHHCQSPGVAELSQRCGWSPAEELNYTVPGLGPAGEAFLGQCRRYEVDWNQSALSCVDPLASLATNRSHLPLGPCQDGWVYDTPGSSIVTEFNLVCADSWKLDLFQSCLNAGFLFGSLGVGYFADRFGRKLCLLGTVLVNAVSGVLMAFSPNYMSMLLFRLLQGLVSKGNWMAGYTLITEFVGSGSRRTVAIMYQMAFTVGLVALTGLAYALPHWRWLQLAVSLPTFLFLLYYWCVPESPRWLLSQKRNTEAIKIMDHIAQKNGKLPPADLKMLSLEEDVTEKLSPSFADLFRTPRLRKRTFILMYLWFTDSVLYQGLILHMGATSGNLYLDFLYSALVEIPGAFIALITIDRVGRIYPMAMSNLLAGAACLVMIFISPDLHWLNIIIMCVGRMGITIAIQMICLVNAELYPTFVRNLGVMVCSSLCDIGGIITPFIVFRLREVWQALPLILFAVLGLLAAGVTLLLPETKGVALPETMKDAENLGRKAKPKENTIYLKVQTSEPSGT

OCT2 = OCT2 (Homo sapiens, UniProt O15244); assay: In vitro transporter inhibition, OCT2
Sequence of OCT2 (O15244 whole entry): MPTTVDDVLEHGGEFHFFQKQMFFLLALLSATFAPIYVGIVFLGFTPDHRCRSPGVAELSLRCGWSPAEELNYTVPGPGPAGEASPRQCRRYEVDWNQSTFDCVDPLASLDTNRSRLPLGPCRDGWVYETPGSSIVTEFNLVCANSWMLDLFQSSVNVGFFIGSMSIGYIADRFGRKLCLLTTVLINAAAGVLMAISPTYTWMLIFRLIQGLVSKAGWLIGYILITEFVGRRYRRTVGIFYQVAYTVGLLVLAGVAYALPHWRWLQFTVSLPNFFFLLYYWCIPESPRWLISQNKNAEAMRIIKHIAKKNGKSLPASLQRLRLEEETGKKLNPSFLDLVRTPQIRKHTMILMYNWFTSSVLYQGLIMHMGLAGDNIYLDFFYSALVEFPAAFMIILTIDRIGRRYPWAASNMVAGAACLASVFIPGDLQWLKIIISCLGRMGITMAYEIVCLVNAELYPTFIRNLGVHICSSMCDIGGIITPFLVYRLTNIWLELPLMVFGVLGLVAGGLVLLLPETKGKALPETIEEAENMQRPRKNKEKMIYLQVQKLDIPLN

P-gp = P-gp (Homo sapiens, UniProt P08183); assay: In vitro transporter inhibition, P-gp
Sequence of P-gp (P08183 whole entry): as the sequence (P08183 whole entry) above

[5] = human
[6] = In vitro profiling for metabolic drug-drug interactions; conditions: direct inhibition and induction mechanisms
Broad off-target panel = conditions: functional assays, ligand binding, enzyme activity
rats = assay: Chronic oral toxicology study in rats; conditions: end of study exposure
clinical = conditions: human, in vivo
[7] = target: multidrug and toxin extrusion (MATE) 1 (Homo sapiens, UniProt Q96FL8); assay: In vitro transporter inhibition, MATE1
Sequence of multidrug and toxin extrusion (MATE) 1 (Q96FL8 whole entry): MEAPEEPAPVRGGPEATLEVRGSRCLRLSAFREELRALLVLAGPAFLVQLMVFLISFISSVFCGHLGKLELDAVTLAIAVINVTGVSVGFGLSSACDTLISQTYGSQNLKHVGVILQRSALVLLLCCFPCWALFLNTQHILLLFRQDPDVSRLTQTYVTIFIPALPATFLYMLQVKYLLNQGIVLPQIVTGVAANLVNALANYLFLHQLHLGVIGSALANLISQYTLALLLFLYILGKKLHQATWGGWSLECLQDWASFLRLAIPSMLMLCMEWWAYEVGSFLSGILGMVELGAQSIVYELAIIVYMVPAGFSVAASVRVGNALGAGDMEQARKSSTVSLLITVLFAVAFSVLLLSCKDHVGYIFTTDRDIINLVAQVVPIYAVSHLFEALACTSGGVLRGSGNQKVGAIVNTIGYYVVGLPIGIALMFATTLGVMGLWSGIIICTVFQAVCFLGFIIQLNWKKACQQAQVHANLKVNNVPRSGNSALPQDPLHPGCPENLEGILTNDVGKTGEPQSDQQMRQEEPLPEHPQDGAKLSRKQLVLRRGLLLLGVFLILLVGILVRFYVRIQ

[8] = test system: T helper (Th) 1, Th17, and B cells; assay: Differentiation of Th1, Th17 and B cells; type: cell-based
Text: (§2) Pharmacology. Brepocitinib inhibits various TYK2- and JAK1-dependent functions in different cell types such as cytokine-induced phosphorylation of signal transducer and activator transcriptions (STATs) in human peripheral blood mononuclear cells (PBMCs) and whole blood; differentiation of T helper (Th) 1, Th17, and B cells, interleukin (IL)-12-induced IFNγ production in human PBMCs; and IFN-1 gene signature induced by immune complexes in human PBMCs.

human PBMCs [9] = assay: IL-12-induced IFNγ production; type: cell-based
Text: as §2

CYP3A4/5 = conditions: human
IP-10 (CXCL10) = assay: IP-10 reduction in clinical studies; type: in vivo, human; conditions: dose dependent reductions in clinical studies
Text: (§3) As part of the clinical development program for oral Brepocitinib, a number of Phase 1 and Phase 2 studies have been completed or have a report in preparation. […] The multiple autoimmune diseases for which there is observed clinical efficacy data for Brepocitinib have mechanistic pathway similarities to DM. For example, psoriasis is driven by IL-17, which is downstream of IL-12 and IL-23 signaling via TYK2 and/or JAK1, and alopecia areata is characterized by excessive activity of IFN-γ, a type II interferon which also signals via JAK1. Of note, dose dependent reductions in IP-10 (CXCL10), an IFN-γ inducible gene, have been observed in Brepocitinib clinical studies, separating from placebo at doses ≥10 mg QD. Importantly, in these phase 2 studies, clinical response with Brepocitinib treatment rapidly separates from placebo. For example, in the phase 2 study assessing Brepocitinib's efficacy in psoriatic arthritis, Brepocitinib 30 mg achieved a 52% ACR20 response rate after 4 weeks compared to a 19% response rate in placebo patients.

[10] = test system: psoriatic arthritis, plaque psoriasis, ulcerative colitis, alopecia areata, and hidradenitis suppurativa; assay: 5 completed Phase 2 placebo-controlled studies; type: in vivo, human; conditions: each of 5 placebo-controlled Phase 2 studies
Text: Primary efficacy endpoints with Brepocitinib. […] These clinical data, along with the overlapping pathogenic cytokine profile, support the rationale for evaluating Brepocitinib in DM.

[11] = Tolerability in clinical studies to date; type: in vivo, human
Text: Brepocitinib is being evaluated in a double-blind, randomized, placebo-controlled Phase 3 study in DM (NCT0543726; VALOR Study). With a planned enrollment of 225 subjects, the VALOR Study is the largest well-controlled trial in DM to date. Adult patients with definite or probable idiopathic inflammatory myopathy (IIM), who meet the subclassification criteria for DM, have both muscle and skin disease involvement (classic DM), and are receiving (or are not responsive to or are intolerant to) corticosteroids and/or immunomodulatory/immunosuppressive therapies are eligible to enroll. The primary endpoint is the total improvement score (TIS) at week 52. The TIS is a composite endpoint based on the following six CSM scores: the Physician Global Disease Activity, the Patient Global Disease Activity, the Health Assessment Questionnaire, MMT-8, Extramuscular Disease Activity, and muscle enzymes. To evaluate the steroid-sparing effect of Brepocitinib, participants using glucocorticoids at baseline must taper to an oral glucocorticoid dose of prednisone≤5 mg/day (or equivalent) by week 36.

[12] = test system: rat adjuvant-induced arthritis; assay: Rat adjuvant-induced arthritis disease model; conditions: in vivo
Text: as §2

psoriatic arthritis = assay: Phase 2 study in psoriatic arthritis (ACR20); type: in vivo, human; conditions: 30 mg; after 4 weeks; psoriatic arthritis patients
Text: as §3

[13] = Dose-response across Phase 2 studies; type: in vivo, human; conditions: normalized responder rate vs average daily dose across Phase 2 studies
[14] = human, plasma, 2 μM
[15] = test system: cytokine signaling pathways that engage TYK2 and/or JAK1, including IFNα, IFNg, IL-12, and IL-23; assay: Cytokine signaling in human whole blood; type: cell-based; conditions: IL-12, IL-23
[16] = test system: Human skeletal muscle myoblasts (HSMM) differentiated into myotubes; assay: IFN-I induced myotube damage (myosin 4 surface area); type: cell-based; conditions: for mean myosin surface area: 48 hours IFN-I
Description: (§4) Timeline for Brepocitinib efficacy evaluation for IFN-I induced pathological changes characteristic of DM in vitro. As shown in the schematic image of FIG. 1, human skeletal muscle myoblasts (HSMM) were cultured and differentiated into myotubes then treated with vehicle control or IFN-I (recombinant Human IFN alpha A and Human IFN alpha D) to induce cellular damage. Myotubes were also preincubated for 1 hour with Brepocitinib (1 μM or 130 nM, the latter is equivalent to the average free plasma concentration after administration of 30 mg once-daily) prior to IFN-I treatment. Immunofluorescence staining followed by image analysis to determine myosin 4 surface area were conducted after 48 hours of IFN-I treatment. Human dermal microvascular endothelial cells (HMEC-1) were cultured and, once vascular networks were established, cells were treated with IFN-I or vehicle control. Cells were also preincubated for 1 hour with Brepocitinib. Under light microscopy, 9 hours after treatment, the number of nodes, master segment length, and total mesh area were analyzed.
Human skeletal muscle myoblasts (Lonza, CC-2580) were cultured in SkGM™-2 media (Lonza, CC-3245) and sub-cultured using ReagentPack™ Subculture Reagents (Lonza, CC-5034). They were then differentiated into myotubes by culturing in differentiation medium [DMEM/F12+2% Horse serum (Thermofisher, 16050122)] for 3-5 days until most of the myoblast cells differentiated into multinucleated myotubes. The myotubes were then preincubated with vehicle or Brepocitinib prior to type I interferon (R&D, 11200-2) exposure at concentrations (FIG. 7). After 48 hours of treatment, cells were fixed and stained with Myosin 4 Monoclonal antibody (MF20; Thermofisher, 14-6503-82) and Hoechst for nuclei visualization. The effect on total myotube surface area was evaluated via fluorescent image analysis. […] The effect of type I IFN exposure±Brepocitinib treatment on the number of nodes, master segment length, and total mesh area was evaluated by taking bright-field images every 16 hours.

male rat = assay: Fertility study in rats; type: in vivo; conditions: 55 mg/kg/day
Text: as §1

[17] = test system: cytokine-induced phosphorylation of STATs in human PBMCs and whole blood; assay: Cytokine-induced STAT phosphorylation; type: cell-based
Text: as §2

CYP1A2 = CYP1A2 (Homo sapiens, UniProt P05177)
Sequence of CYP1A2 (P05177 whole entry): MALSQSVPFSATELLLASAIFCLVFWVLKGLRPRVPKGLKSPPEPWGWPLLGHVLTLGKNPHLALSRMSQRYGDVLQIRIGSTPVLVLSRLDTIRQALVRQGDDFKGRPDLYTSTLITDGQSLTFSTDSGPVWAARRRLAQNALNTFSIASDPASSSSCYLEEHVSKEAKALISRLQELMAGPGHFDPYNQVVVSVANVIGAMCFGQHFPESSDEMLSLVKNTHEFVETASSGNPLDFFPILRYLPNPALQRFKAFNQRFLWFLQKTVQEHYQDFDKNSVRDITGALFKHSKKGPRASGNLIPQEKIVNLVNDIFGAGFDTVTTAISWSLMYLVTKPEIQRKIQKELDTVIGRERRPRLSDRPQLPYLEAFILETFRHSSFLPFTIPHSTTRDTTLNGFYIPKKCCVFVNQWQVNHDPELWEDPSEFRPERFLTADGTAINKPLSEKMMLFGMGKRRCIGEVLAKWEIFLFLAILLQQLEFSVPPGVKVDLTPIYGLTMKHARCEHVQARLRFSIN

[18] = test system: Human dermal microvascular endothelial cells (HMEC-1); assay: IFN-I induced endothelial cell damage (vascular network); type: cell-based; conditions: Brepocitinib preincubation
Description: as §4, with “Human dermal microvascular endothelial cells (HMEC-1) were cultured and, once vascular networks were established, cells were treated with IFN-I or vehicle control. Cells were also preincubated for 1 hour with Brepocitinib.” left out
Human skeletal muscle myoblasts (Lonza, CC-2580) were cultured in SkGM™-2 media (Lonza, CC-3245) and sub-cultured using ReagentPack™ Subculture Reagents (Lonza, CC-5034). […] The effect on total myotube surface area was evaluated via fluorescent image analysis. […] The effect of type I IFN exposure±Brepocitinib treatment on the number of nodes, master segment length, and total mesh area was evaluated by taking bright-field images every 16 hours.

human PBMCs [19] = assay: IFN-1 gene signature induced by immune complexes; type: cell-based
Text: as §2

[20] = Cardiovascular safety pharmacology studies; conditions: oral administration
[21] = target: breast cancer resistance protein (BCRP) (Homo sapiens, UniProt Q9UNQ0); assay: In vitro transporter inhibition, BCRP

Cn1cc(Nc2nccc(N3C[C@H]4CC[C@@H](C3)N4C(=O)[C@@H]3CC3(F)F)n2)cn1 [Brepocitinib, [(1S)-2,2-difluorocyclo-propyl][(1R,5S)-3-{2-[(1-methyl-1H-pyrazol-4-yl)amino]pyrimidin-4-yl}-3,8-diazabicyclo[3.2.1]oct-8-yl]methanone]
Solubility in 250 mL of the media [1]: fully soluble | Solubility ([1]; across the physiological pH range): highly soluble | neoplastic findings (transgenic (Tg) mice): No Brepocitinib-related neoplastic findings | P-gp substrate status [2]: substrate | dissolution from immediate-release (IR) tablets [3]: > 85% | AUC exposure margin, NOAEL to clinical exposure of 30 mg QD (cynomolgus monkeys): 7.8 fold | In vitro inhibition of OCT1 [4]: inhibition | In vitro inhibition of OCT2 (OCT2): inhibition | radiolabeled dose recovered as unchanged Brepocitinib in the urine (human, in vivo): Approximately 8% | radiolabeled dose recovered as Brepocitinib metabolites in the urine (human, in vivo, po): Approximately 80% | Permeability (not told): highly permeable | In vitro inhibition of P-gp (P-gp): inhibition | dose recovered in urine ([5]; in vivo): ≤ 16% | effect of food (high-fat meal) on absorption ([5]; in vivo): does not have a clinically relevant effect on the extent of absorption | fraction absorbed ([5]; in vivo): approximately 100% | increase of AUC(0-∞) and Cmax with dose ([5]; in vivo): approximately dose-proportional | time to steady state ([5]; in vivo): ≤ 8 days | Permeability class according to the BCS criteria ([5]; not told, po): high-permeability compound | potential to be a perpetrator of metabolic drug-drug interactions [6]: low potential | off-target pharmacology potential (Broad off-target panel): low potential for off-target pharmacology | AUC exposure margin, NOAEL to clinical exposure of 30 mg QD (rats): 54 fold | half-life (clinical): 4 to 8 h | bioavailability (clinical; absolute bioavailability): ~75% | bioavailability (clinical; bioavailability of tablets relative to solution): ~96% | In vitro inhibition of MATE1 [7]: inhibition | differentiation of Th1, Th17, and B cells [8]: inhibits | IL-12-induced IFNγ production (human PBMCs [9]): inhibits | in vitro fraction metabolized (CYP3A4/5): 0.77 | doses at which IP-10 (CXCL10) reduction separates from placebo (IP-10 (CXCL10)): ≥ 10 mg QD | Primary efficacy outcome in Phase 2 studies [10]: clinically meaningful and statistically significant results | tolerability [11]: generally well-tolerated | effect in rat adjuvant-induced arthritis [12]: anti-inflammatory effects | ACR20 response rate (psoriatic arthritis): 52% | dose resulting in 50% maximal response [13]: 15 mg QD | fraction of unbound drug [14]: 0.609 | Inhibition of cytokine signaling pathways implicated in DM [15]: inhibited | mean myosin surface area ([16]; 130 nM preincubation 1 hour): 94.1 % of the vehicle control | mean myosin surface area ([16]; 1 μM preincubation 1 hour): 100 % of the vehicle control | IFN-I induced damage in myotubes ([16]; Brepocitinib preincubation, 130 nM and 1 μM): almost completely prevented | effects on male rat fertility (male rat; highest dose tested): No adverse effects | margin to clinical exposures at highest dose tested (male rat; male rat fertility): > 50 fold | cytokine-induced phosphorylation of STATs [17]: inhibits | in vitro fraction metabolized (CYP1A2): 0.14 | IFN-I induced damage in endothelial cells [18]: almost completely prevented | IFN-1 gene signature induced by immune complexes (human PBMCs [19]): inhibits | cardiovascular safety pharmacology findings [20]: effects on blood pressure, heartrate, and corrected QT interval (QTc) interval were observed | In vitro inhibition of BCRP [21]: inhibition
